Laboratory results taken from patent publication US8232308B2, “Methods for treating a disease in which Rho kinase is involved” (UBE Industries, Ltd., priority 2003, dated 2012).
Where a name gives a salt, the structure may show the parent alone.

| melting point | Compound |
| --- | --- |
| 270 to 272 °C | CC(C)(N)c1ccc(-c2ccc3[nH]ncc3c2C#N)cc1 (as salt: hydrochloride) [Compound 5-36, 5-[4-(1-Amino-1-methylethyl)phenyl]-4-cyano-1H-indazole monohydrochloride] |
| 244 to 247 °C (dec.) | CC(C)(N)c1ccc(-c2ccc3[nH]ncc3c2-n2cccc2)cc1 (as salt: hydrochloride) [Compound 5-39, 5-[4-(1-Amino-1-methylethyl)phenyl]-4-(pyrrol-1-yl)-1H-indazole dihydrochloride] |
| 195 to 203 °C (dec.) | COc1c(-c2ccc(C3(N)CCCC3)cn2)ccc2[nH]ncc12 (as salt: hydrochloride) [Compound 5-46, 5-[5-(1-Aminocyclopentyl)pyridin-2-yl]-4-methoxy-1H-indazole trihydrochloride] |
| 194 to 198 °C (dec.) | CC(C)(N)c1ccc(-c2ccc3[nH]ncc3c2O)cc1 (as salt: hydrochloride) [Compound 5-48, 5-[4-(1-Amino-1-methylethyl)phenyl]-4-hydroxy-1H-indazole dihydrochloride] |
| 248 to 256 °C (dec.) | CCOc1c(-c2ccc(C(C)(C)N)cc2)ccc2[nH]ncc12 (as salt: hydrochloride) [Compound 5-49, 5-[4-(1-Amino-1-methylethyl)phenyl]-4-ethoxy-1H-indazole dihydrochloride] |
| 211 to 213 °C (dec.) | CC(C)Oc1c(-c2ccc(C(C)(C)N)cn2)ccc2[nH]ncc12 (as salt: hydrochloride) [Compound 5-50, 5-[5-(1-Amino-1-methylethyl)pyridin-2-yl]-4-isopropoxy-1H-indazole trihydrochloride] |
| 204 to 206 °C (dec.) | CCC(N)(CC)c1ccc(-c2ccc3[nH]ncc3c2OC)nc1 (as salt: hydrochloride) [Compound 5-51, 5-[5-(1-Amino-1-ethylpropyl)pyridin-2-yl]-4-methoxy-1H-indazole trihydrochloride] |
| 237 to 243 °C (dec.) | CCCOc1c(-c2ccc(C(C)(C)N)cc2)ccc2[nH]ncc12 (as salt: hydrochloride) [Compound 5-52, 5-[4-(1-Amino-1-methylethyl)phenyl]-4-n-propoxy-1H-indazole dihydrochloride] |
| 200 to 202 °C (dec.) | CCOc1c(-c2ccc(C(N)(CC)CC)cn2)ccc2[nH]ncc12 (as salt: hydrochloride) [Compound 5-60, 5-[5-(1-Amino-1-ethylpropyl)pyridin-2-yl]-4-ethoxy-1H-indazole trihydrochloride] |

The next lines start with the compound.

| Compound | melting point |
| --- | --- |
| CCN(CC)c1c(-c2ccc(C(C)(C)N)cc2)ccc2[nH]ncc12 (as salt: hydrochloride) [Compound 5-31, 5-[4-(1-Amino-1-methylethyl)phenyl]-4-diethylamino-1H-indazole trihydrochloride] | 182 to 184 °C (dec.) |
| CC(C)(N)c1ccc(-c2ccc3[nH]ncc3c2CCO)cc1 (as salt: hydrochloride) [Compound 5-32, 5-[4-(1-Amino-1-methylethyl)phenyl]-4-(2-hydroxy-ethyl)-1H-indazole dihydrochloride] | 202 to 203 °C (dec.) |
| CC(C)(N)c1ccc(-c2ccc3cn[nH]c3c2)cc1 (as salt: hydrochloride) [Compound 5-37, 6-[4-(1-Amino-1-methylethyl)phenyl]-1H-indazole dihydrochloride] | 265 to 269 °C |
| CC(=O)n1ncc2ccc(-c3ccc(C(C)(C)N)cc3)cc21 (as salt: hydrochloride) [Compound 5-38, 1-Acetyl-6-[4-(1-amino-1-methylethyl)phenyl]-1H-indazole dihydrochloride] | 225 to 230 °C |
| CC(C)Oc1c(-c2ccc(C(C)(C)N)cc2)ccc2[nH]ncc12 (as salt: hydrochloride) [Compound 5-40, 5-[4-(1-Amino-1-methylethyl)phenyl]-4-isopropoxy-1H-indazole dihydrochloride] | 242 to 246 °C (dec.) |
| CC(C)(N)c1ccc(-c2ccc3[nH]ncc3c2N2CCCCC2)cc1 (as salt: hydrochloride) [Compound 5-41, 5-[4-(1-Amino-1-methylethyl)phenyl]-4-(piperidin-1-yl)-1H-indazole trihydrochloride] | 205 to 208 °C (dec.) |
| CC(C)(N)c1ccc(-c2ccc3[nH]ncc3c2N2CCCC2)cc1 (as salt: hydrochloride) [Compound 5-42, 5-[4-(1-Amino-1-methylethyl)phenyl]-4-(pyrrolidin-1-yl)-1H-indazole trihydrochloride] | 218 to 224 °C (dec.) |
| CC(C)(N)c1ccc(-c2ccc3[nH]ncc3c2N2CCOCC2)cc1 (as salt: hydrochloride) [Compound 5-43, 5-[4-(1-Amino-1-methylethyl)phenyl]-4-(morpholin-4-yl)-1H-indazole trihydrochloride] | 268 to 272 °C (dec.) |
| COc1c(-c2ccc(C(C)(C)N)cc2)ccc2[nH]ncc12 (as salt: hydrochloride) [Compound 5-44, 5-[4-(1-Amino-1-methylethyl)phenyl]-4-methoxy-1H-indazole dihydrochloride] | 258 to 261 °C (dec.) |
| COc1c(-c2ccc(C(C)(C)N)cn2)ccc2[nH]ncc12 (as salt: hydrochloride) [Compound 5-45, 5-[5-(1-Amino-1-methylethyl)pyridin-2-yl]-4-methoxy-1H-indazole trihydrochloride] | 195 to 201 °C (dec.) |
| CCOc1c(-c2ccc(C(C)(C)N)cn2)ccc2[nH]ncc12 (as salt: hydrochloride) [Compound 5-47, 5-[5-(1-Amino-1-methylethyl)pyridin-2-yl]-4-ethoxy-1H-indazole trihydrochloride] | 198 to 201 °C |
| CC(C)(N)c1ccc(-c2ccc3[nH]ncc3c2OC(F)F)cc1 (as salt: hydrochloride) [Compound 5-53, 5-[4-(1-Amino-1-methylethyl)phenyl]-4-difluoro-methoxy-1H-indazole dihydrochloride] | 227 to 230 °C (dec.) |
| CCCCOc1c(-c2ccc(C(C)(C)N)cc2)ccc2[nH]ncc12 (as salt: hydrochloride) [Compound 5-55, 5-[4-(1-Amino-1-methylethyl)phenyl]-4-n-butoxy-1H-indazole dihydrochloride] | 227 to 229 °C (dec.) |
| C=CCOc1c(-c2ccc(C(C)(C)N)cc2)ccc2[nH]ncc12 (as salt: hydrochloride) [Compound 5-57, 4-Allyloxy-5-[4-(1-amino-1-methylethyl)phenyl]-1H-indazole dihydrochloride] | 205 to 207 °C (dec.) |
| CCCOc1c(-c2ccc(C(C)(C)N)cn2)ccc2[nH]ncc12 (as salt: hydrochloride) [Compound 5-58, 5-[5-(1-Amino-1-methylethyl)pyridin-2-yl]-4-n-propoxy-1H-indazole trihydrochloride] | 194 to 198 °C (dec.) |
| CC(C)(N)c1ccc(-c2ccc3[nH]ncc3c2OC(F)F)nc1 (as salt: hydrochloride) [Compound 5-59, 5-[5-(1-Amino-1-methylethyl)pyridin-2-yl]-4-difluoromethoxy-1H-indazole trihydrochloride] | 170 to 173 °C |
